For test [1], the system named is calcium-independent canine myocardial PLA2. Description: Inhibition of purified calcium-independent canine myocardial PLA2 (radiolabeled fatty acid release). In kind it is biochemical. The following applies: for IC50: purified enzyme, 6.4 mM EGTA, pH 7.0, 5 min preincubation 25° C., 5 min at 37° C., read-out: Canine Heart PLA2 IC50; for selectivity for calcium-independent canine myocardial PLA2 over the calcium-dependent PLA2 enzymes: versus calcium-dependent PLA2 enzymes. Here is the method: This assay consists of determining the amount of radiolabeled fatty acid which is liberated from the radiolabeled phospholipid substrate by purified calcium-independent canine myocardial PLA2 in the presence of varying concentrations of the inhibitor. […] This concentration is defined as the IC50.
Appropriate controls were performed in the absence of test compound. Catalysis was initiated by injection of 1 μM radiolabeled substrate (1-O-(Z)-(1'-hexadecenyl)-2-[9,10-^3 H]-oleoyl-3-phosphorylcholine). After a 5 min incubation at 37° C., reaction products were extracted with n-butanol, separated by thin layer chromatography, and quantified by scintillation spectrometry.
(§1) Two greater than symbols (>>) indicate little or no inhibition at the highest concentration used. Activation of an enzyme is indicated by a +X% which gave that activation of X%.

In test [2] the test system is sheep platelet PLA2. Description: Calcium-dependent sheep platelet PLA2 assay. The following applies: 1 μM CaCl2, pH 7.2; > : inhibition observed but not enough for an IC50 at highest concentration. In kind it is biochemical.
Excerpt: (§2) Several other PLA2 assays were utilized in order to gain some measure of the selectivity of the inhibitors of calcium-independent myocardial PLA2. Specifically, three other calcium-dependent mammalian PLA2 assays are used: (1) sheep platelet PLA2, (2) human synovial fluid PLA2, and (3) porcine pancreatic PLA2. The PLA2 enzymes represent different groups of PLA2 enzymes. Myocardial PLA2, platelet PLA2, and secreted PLA2 enzymes (human synovial fluid PLA2 and porcine pancreatic PLA2) have very different calcium requirements, which may be typical of their respective classes.
Homogeneous sheep platelet cytosolic PLA2 was prepared as described by Loeb, L. A., and Gross, R. W. J. Biol. Chem. 261, 10467-10470 (1986). The purified calcium-dependent platelet PLA2 was preincubated in 70 mM Tris-Cl (pH 7.2) containing 1 μM CaCl2 and test compound for 5 min at 25° C. Catalysis was initiated by injection 1 μM radiolabeled substrate (1-O-(Z)-(1'-hexadecenyl)-2-[9,10-^3 H]-oleoyl-3-phosphorylcholine). After a 10 min incubation period at 37° C., reaction products were extracted with n-butanol, separated by thin layer chromatography, and quantified by scintillation spectrometry. PLA2 activity was compared in the presence and absence of test compound and the IC50 was determined.
as §1

The subject of test [3] is HL-60 cells. The test can be described thus: HL-60 cell assay for LTB4 and PGE2 production (calcium ionophore A23187 induced). Format: cell-based. The following applies: for IC50: Homo sapiens, HL-60, A23187 5×10^-6 M, > : inhibition but not enough for an IC50. Here is the method: An additional whole cell assay was also performed. In this assay, HL-60 cells are induced with the calcium ionophore A23187 in the presence of varying amounts of inhibitor, and the amounts of the prostaglandin E2 (PGE2) and leukotriene B4 (LTB4) which form are measured. Calcium ionophore A23187 activates a calcium-dependent PLA2 which leads to the enhanced production of the arachidonic acid metabolites PGE2 and LTB4. The concentrations of inhibitor which decrease the production of PGE2 and LTB4 by 50% relative to controls are expressed as IC50 values.
HL-60 Cell Assay for LTB4 and PGE2 Production
HL-60 cells grown exponentially in culture were induced to differentiate into granulocytes by a four day incubation with 0.8% (v/v) N,N-dimethylformamide. Prior to assay, differentiated HL-60 cells were washed once with Hanks' balanced salt solution containing 0.35 mg/mL sodium bicarbonate and 10 mM Hepes, pH 7.3 (HBSS) and resuspended in HBSS at a 3×10^6 cells/mL concentration. DMSO or test compounds solubilized in DMSO were added at 1:100 dilution to 1.0 mL HL-60 cell suspensions (3×10^6 cells) and preincubated at 37° C. for 10 min in a shaking water bath. After an additional 5 min incubation with 5×10^-6 M calcium ionophore, A23187 (Calbiochem, La Jolla, Calif.), the cells were centrifuged at 12,800×g for 15 seconds and the supernatant (0.8 mL) removed and stored at -20° C. for LTB4 and PGE2 quantitation by radioimmunoassay (kits obtained from Amersham, United Kingdom and NEN Research Products, N. Billerica, Mass.).
as §1

The target of test [4] is T1, human synovial fluid PLA2 (Homo sapiens, UniProt P14555).
T1 construct: Purified human synovial fluid PLA2; from tissue; host or cells: human synovial fluid; obtained from R. C; Franson (Medical College of Virginia)
T1 sequence (P14555 21-144): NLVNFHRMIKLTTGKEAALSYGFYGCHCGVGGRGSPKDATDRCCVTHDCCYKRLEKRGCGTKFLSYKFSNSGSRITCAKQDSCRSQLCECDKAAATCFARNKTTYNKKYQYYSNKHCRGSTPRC
The test can be described thus: Human synovial fluid PLA2 assay ([14C]-oleate labelled E. coli). Format: biochemical. The following applies: 5 mM CaCl2, pH 7.0; > : inhibition but not enough for an IC50; >> : little or no inhibition at highest concentration; read-out: HSF PLA2 IC50.
Excerpt: as §2
Purified human synovial fluid PLA2 (purified by the procedure of Fawzy, A. A. and Franson, R. C. Biophys. J. 49, 533a [1986]) was obtained from R. C. Franson (Medical College of Virginia, Richmond, Va.). PLA2 activity was measured by using [^14 C]-oleate labelled autoclaved E. coli as substrate as described by Franson, R. C., Patriarca, P., and Elsbach, P. J. Lipid Res. 15, 380-388 (1974). The assay was performed at 37° C. for 30 min in a final volume of 100 μL 50 mM Hepes buffer (pH 7.0) containing 150 mM NaCl, 5 mM CaCl2, and E. coli cells (corresponding to 10 nmol phospholipid). The test compound or control vehicle was preincubated with PLA2 for 5 min, followed by adding E. coli to initiate the reaction. The reaction was terminated by adding 2 mL tetrahydrofuran. The reaction product, [^14 C]-oleic acid, was isolated using a 1 mL Bond Elute--NH2 column and counted by liquid scintillation spectrometry.
as §1

Test [5] has as its target T2, porcine pancreatic PLA2 (Sus scrofa, UniProt P00592).
T2 construct: purchased Sigma (St. Louis); host or cells: porcine pancreas
The test can be described thus: Porcine pancreatic PLA2 assay ([14C]-oleate labelled E. coli). Format: biochemical. To be noted: 10 mM CaCl2, pH 8.0; > : inhibition but not enough for an IC50; >> : little or no inhibition at highest concentration; read-out: Porcine Pancr. PLA2 IC50.
Excerpt: as §2
Purified porcine pancreatic PLA2 was obtained from Sigma (St. Louis, Miss.). PLA2 activity was measured by using [^14 C]-oleate labelled autoclaved E. coli as described by Franson, Patriarca and Elsbach (referenced above). The assay was performed at 37° C. for 5 min in a final volume of 100 μL Tris-HCl buffer (100
mM, pH 8.0) containing 1 mM EDTA, 10 mM CaCl2, and E. coli (containing 10 nmol phospholipid). The test compound or control vehicle was preincubated with PLA2 for 5 min, followed by adding E. coli to initiate the reaction. The reaction was terminated by adding 2 mL tetrahydrofuran. The reaction product, [^14 C]-oleic acid, was isolated using a 1 mL Bond Elute--NH2 column and counted by liquid scintillation spectrometry.
as §1

Test [6] has as its system rat neonatal myocytes. To be noted: cited from earlier work.
Where [7] appears, read: LTB4 production, read-out: HL-60 LTB4 IC50.
[8] abbreviates: PGE2 production, >> : little or no inhibition at highest concentration, read-out: HL-60 PGE2 IC50.

Usually IC50 stands for the concentration needed to halve the response being measured.

The structures appear in SMILES notation. Structures can show the parent of a compound that is named as a salt. Where two headings read alike, the source gives them in different places.

T2 sequence (P00592 23-146): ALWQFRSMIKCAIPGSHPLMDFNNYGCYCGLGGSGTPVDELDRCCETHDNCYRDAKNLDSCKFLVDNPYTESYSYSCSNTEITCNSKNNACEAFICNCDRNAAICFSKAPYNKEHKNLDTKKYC

For `O=C1CCC/C(=C\Br)O1` [Example 9, (E)-6-(Bromomethylene)tetrahydro-2H-pyran-2-one], the “Canine Heart PLA2 inhibition at 100 μM” value in test [1] (100 μM, printed in the IC50 column with footnote 4) amounted to 28%.

Regarding `C=C1CCC(c2cccc3ccccc23)C(=O)O1` (centres unmarked) [Example 7, Tetrahydro-6-methylene-3-(1-naphthalenyl)-2H-pyran-2-one], in test [1], the “potency against canine myocardial PLA2 (in words)” value (from here on “potency”) is “loss of more than two orders of magnitude in potency” and the IC50 is 22 µM.

As to `O=C1O/C(=C/Br)CCC1Oc1ccccc1` (centres unmarked) [Example 8, (E)-6-(Bromomethylene)tetrahydro-3-phenoxy-2H-pyran-2-one], the IC50 in test [1] is 21 µM.

On to `O=C1O/C(=C/I)CCC1c1cccc2ccccc12` (centres unmarked) [Example 1, Tetrahydro-(E)-6-(iodomethylene)-3-(1-naphthalenyl)-2H-pyran-2-one], for which the IC50 in test [2] is 100 µM; in test [3] (setting [7]) it was 11.7 µM; in test [3] (setting [8]), more than 100 µM; in test [4], more than 100 µM; in test [5], more than 100 µM; in test [1], 0.031 µM. For the same compound, the “HL-60 PGE2 activation (+X%)” value in test [3] (PGE2 production) is on record as “+300%”. In addition, in test [1], the “potency” value is “most potent compound known against calcium-independent canine myocardial PLA2”. The “selectivity for calcium-independent canine myocardial PLA2 over the calcium-dependent PLA2 enzymes” value in test [1] was “over 3200 -fold”.

As to `O=C1O/C(=C\I)CCC1c1cccc2ccccc12` (centres unmarked) [Example 4, Tetrahydro-(Z)-6-(iodomethylene)-3-(1-naphthalenyl)-2H-pyran-2-one], in test [1], the “potency” value is reported as “potency drops off by almost an order of magnitude” and the IC50 is 0.19 µM.

For the compound `O=C1O/C(=C/Br)CCC1c1ccccc1` (centres unmarked) [Example 5, (E)-6-(Bromomethylene)tetrahydro-3-phenyl-2H-pyran-2-one], the IC50 in test [2] is more than 100 µM; in test [3] (setting [7]), 1.1 µM; in test [3] (setting [8]), more than 100 µM; in test [4], more than 100 µM; in test [5] it was more than 100 µM; in test [1], 0.25 µM. Further, the “HL-60 PGE2 activation (+X%)” value in test [3] (PGE2 production) is recorded as “+63%”. The “selectivity for calcium-independent canine myocardial PLA2 over the calcium-dependent PLA2 enzymes” value in test [1] is reported as “over 400 -fold”.

Regarding `C#C/C=C1\CCC(c2cccc3ccccc23)C(=O)O1` (centres unmarked) [Example 2, Tetrahydro-3-(1-Naphthalenyl)-(E)-6-(prop-2-ynylidene)-2H-pyran-2-one], the IC50 in test [2] was 38 µM; in test [3] (setting [7]) it was more than 10 µM; in test [3] (setting [8]), more than 10 µM; in test [4] it was 53 µM; in test [5], 17 µM.

For `O=C(O)CI` [iodoacetate], in test [6] (rat neonatal myocytes), the “ATP levels, release of arachidonic acid and morphological alterations of myocytes” value was “lowers the levels of ATP which results in the release of arachidonic acid and morphological alterations of the myocytes”.

Consider `O=C1O/C(=C/Br)CCC1c1cccnc1` (centres unmarked) [Example 10, (E)-6-(Bromomethylene)tetrahydro-3-(3-pyridyl)-2H-pyran-2-one Hydrochloride], for which, in test [1], the half-maximal inhibitory concentration (IC50) was 75 µM.

As for `COC1=CCC2=C(CCC3C2CC[C@@]2(C)C3CC[C@@H]2N(C)CCCN(C)C)C1` (some centres unmarked) [U26,384], the “release of arachidonic acid, phospholipid degradation, sarcolemmal membrane defects and release of creatine kinase” value in test [6] (induced by iodoacetate) was “prevented the release of arachidonic acid, phospholipid degradation, sarcolemmal membrane defects and the release of creatine kinase”.

Turning to `O=C1O/C(=C/Br)CCC1c1cccc2ccccc12` (centres unmarked) [Example 3, (E)-6-(bromomethylene)tetrahydro-3-(1-naphthalenyl)-2H-pyran-2-one], the IC50 is 72 µM in test [2]; more than 10 µM in test [3] (setting [7]); more than 10 µM in test [3] (setting [8]); more than 100 µM in test [4]; more than 100 µM in test [5]; 0.14 µM in test [1]. Also, the “HL-60 PGE2 activation (+X%)” value in test [3] (PGE2 production) is given as “+91%”. For the same compound, the “potency” value in test [1] is on record as “extremely potent inhibitors of canine myocardial PLA2”. In test [1], the “selectivity for calcium-independent canine myocardial PLA2 over the calcium-dependent PLA2 enzymes” value is “over 500 -fold”.

`O=C1O/C(=C/Br)CC1c1cccc2ccccc12` (centres unmarked) [Example 6, (E)-5-(Bromomethylene)tetrahydro-3-(1-naphthalenyl)-2(3H)-furanone]: in test [1], the IC50 is 1.7 µM.

The values above are taken from patent US5208244A, “Method of selectively inhibiting calcium-independent myocardial phospholipase A2” (priority 1990, dated 1993).
